Data taken from patent publication US12480151B2, “DNA preservation in biological specimens using metal chelators” (Northeastern University, priority 2020, dated 2025).

Experiments:
[1] = test system: high molecular weight DNA in body tissue of Alitta virens; test: Preservation of high molecular weight DNA in stored tissue, TapeStation % R and nY; details: A. virens, 3 months, room temperature
Experimental: (§1) To evaluate the contributions of the three components of DESS to DNA preservation in tissues, DNA quality was compared among extracts of tissues from three aquatic invertebrate taxa preserved for various time intervals in DESS or one of six DESS-variant solutions in a full factorial design. Each of these six variants contained either one of the three components of DESS individually or one of the three possible pairwise combinations of two DESS components. […] All solutions were prepared at room temperature (22-24° C.) using distilled deionized water as the diluent.
(§2) Live specimens of M. edulis and F. virilis were stored on ice and live A. virens were stored at 4° C. prior to dissection. Gill, abdominal muscle and body tissue samples were collected immediately after euthanasia from specimens of M. edulis, F. virilis, and A. virens, respectively. […] DNA was extracted from the ninth subsample, hereafter referred to as fresh tissue, immediately after dissection without preservation. […] Seven specimens of M. edulis, seven specimens of F. virilis and ten specimens of A. virens were assigned to each time interval for a total of 35 M. edulis, 35 F. virilis and 50 A. virens.
(§3) After the assigned storage interval, each tissue sample was removed from its storage solution and reweighed. […] To control for changes in tissue weight during storage, a correction ratio was calculated by dividing the tissue weight prior to storage by the post storage weight. Each extract subsample weight was then multiplied by the correction ratio to estimate the fresh tissue weight equivalent for that subsample. These values were then used to calculate normalized yield (see statistical analysis). DNA was extracted from tissues using the DNeasy Blood and Tissue Kit (Qiagen; Hilden, Germany) following the manufacturers recommended protocol with tissues digested overnight and DNA eluted by adding two sequential 50 μl volumes of Buffer AE for a total elution volume of 100 μl. […]

[2] = test system: high molecular weight DNA in gill tissue of Mytilus edulis; test: as above; details: M. edulis, 3 months, room temperature
Experimental: as §1, §2, §3

[3] = test system: high molecular weight DNA in tissues of Mytilus edulis, Faxonius virilis and Alitta virens; test: Qualitative DNA fragment length distribution by agarose gel electrophoresis, several taxa; details: M. edulis and F. virilis, 6 months, room temperature
Experimental: as §2

[4] = test system: high molecular weight DNA in tissues of Alitta virens; test: pH study: tissue stored 1 year in EDTA solutions at pH 8.0, 9.0, 10.0; details: A. virens, one year of storage, room temperature
Excerpt: The tissues of 5 species of aquatic animals were stored in the resulting solutions at room temperature for periods ranging from 6 weeks to 12 months.

[5] = test system: high molecular weight DNA in tissues of Mytilus edulis, Faxonius virilis and Alitta virens; test: Preservation of high molecular weight DNA in stored tissue, TapeStation % R and nY, statements covering several taxa; details: M. edulis and F. virilis, 3 months
Experimental: as §1
Live specimens of M. edulis and F. virilis were stored on ice and live A. virens were stored at 4° C. prior to dissection. Gill, abdominal muscle and body tissue samples were collected immediately after euthanasia from specimens of M. edulis, F. virilis, and A. virens, respectively. […] DNA was extracted from the ninth subsample, hereafter referred to as fresh tissue, immediately after dissection without preservation. […]
After the assigned storage interval, each tissue sample was removed from its storage solution and reweighed. […] To control for changes in tissue weight during storage, a correction ratio was calculated by dividing the tissue weight prior to storage by the post storage weight. […]

[6] = test system: rat; details: oral; cited from earlier work

SMILES | normalized high molecular weight DNA yield (nY) [1] | percent high molecular weight DNA recovered (% R) [1] | percent high molecular weight DNA recovered (% R), average [2] [%] | high molecular weight DNA visualized by agarose gel electrophoresis [3] | high molecular weight DNA yielded [4] | normalized high molecular weight DNA yield (nY) [5] | percent high molecular weight DNA recovered (% R) [5] | LD50 [6]
CCO [EtOH, ethanol] | performed significantly better than tissues preserved in DE, DSS, D and E | performed significantly better than tissues preserved in DE, DSS, D and E | 15.37 | evident | little or no high molecular weight DNA | equal to or significantly greater than fresh tissues | equal to or significantly greater than fresh tissues | 
[Cl-].[Na+] [NaCl, sodium chloride] |  |  |  |  |  |  |  | 3,000 mg/kg
